Measurements as given in US9642831B2, “Substituted chromanes and method of use” (AbbVie S.á.r.l., priority 2014, dated 2017).

Columns and labels:
[1] = molecular target: T1, F508delCFTR (Homo sapiens, UniProt P13569, DEL508-508); test: Transepithelial Clamp Circuit (TECC-24) conductance assay on primary human bronchial epithelial cells (hBE-TECC); format: cell-based; design: cells isolated from CF patients with the homozygous mutation; endogenous in cells; host or cells: primary human bronchial epithelial (hBE) cells from F508del/F508del CF patients; settings: for EC50: primary hBE cells from F508del/F508delCFTR patients, corrector 18-24 hours at 37° C., equivalent short circuit current (Ieq), with control potentiator 1 μM; for Emax: relative to positive control (3 μM Example 1 coupled with control potentiator = 100%), primary hBE F508del/F508del cells, read-out: Maximum % activity (%)
T1 sequence (P13569 with tags, fused parts or gaps DEL508-508): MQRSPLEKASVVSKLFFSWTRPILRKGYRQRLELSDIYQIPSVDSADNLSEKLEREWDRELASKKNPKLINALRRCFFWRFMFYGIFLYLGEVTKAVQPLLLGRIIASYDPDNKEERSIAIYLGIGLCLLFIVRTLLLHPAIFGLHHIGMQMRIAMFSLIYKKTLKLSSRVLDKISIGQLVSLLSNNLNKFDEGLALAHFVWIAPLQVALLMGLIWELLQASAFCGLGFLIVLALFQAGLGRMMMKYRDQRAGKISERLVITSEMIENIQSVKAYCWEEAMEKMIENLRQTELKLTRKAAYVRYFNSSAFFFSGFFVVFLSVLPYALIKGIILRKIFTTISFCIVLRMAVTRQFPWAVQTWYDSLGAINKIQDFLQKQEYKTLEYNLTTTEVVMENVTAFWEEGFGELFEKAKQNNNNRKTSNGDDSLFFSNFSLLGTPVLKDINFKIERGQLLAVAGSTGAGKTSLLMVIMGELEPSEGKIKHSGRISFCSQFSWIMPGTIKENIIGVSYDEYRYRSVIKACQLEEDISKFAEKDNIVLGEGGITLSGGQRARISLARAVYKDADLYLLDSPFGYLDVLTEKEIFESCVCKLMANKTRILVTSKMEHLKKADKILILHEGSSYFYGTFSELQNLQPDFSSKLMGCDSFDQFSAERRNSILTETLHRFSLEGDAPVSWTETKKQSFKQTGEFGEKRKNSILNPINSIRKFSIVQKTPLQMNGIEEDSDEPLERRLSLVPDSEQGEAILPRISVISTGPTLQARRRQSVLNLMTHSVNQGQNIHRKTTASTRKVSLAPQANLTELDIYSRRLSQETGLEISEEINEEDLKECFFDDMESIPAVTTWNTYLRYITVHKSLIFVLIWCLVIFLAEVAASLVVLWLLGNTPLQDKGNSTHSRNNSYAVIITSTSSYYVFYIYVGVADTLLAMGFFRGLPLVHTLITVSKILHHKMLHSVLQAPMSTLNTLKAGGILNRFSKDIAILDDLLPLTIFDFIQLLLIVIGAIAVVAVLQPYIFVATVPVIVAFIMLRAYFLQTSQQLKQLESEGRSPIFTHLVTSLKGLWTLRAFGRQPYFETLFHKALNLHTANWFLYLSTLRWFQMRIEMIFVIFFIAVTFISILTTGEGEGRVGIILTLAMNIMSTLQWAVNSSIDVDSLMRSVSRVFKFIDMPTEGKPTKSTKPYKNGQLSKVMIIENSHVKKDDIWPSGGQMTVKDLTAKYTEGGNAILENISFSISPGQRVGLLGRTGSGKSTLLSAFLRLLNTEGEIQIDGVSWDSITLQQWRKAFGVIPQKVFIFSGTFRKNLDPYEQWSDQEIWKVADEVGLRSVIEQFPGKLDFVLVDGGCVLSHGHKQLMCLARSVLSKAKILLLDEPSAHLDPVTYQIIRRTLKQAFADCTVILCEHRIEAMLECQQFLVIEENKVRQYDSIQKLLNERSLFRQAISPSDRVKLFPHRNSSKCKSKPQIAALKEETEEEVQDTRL
From the text: Transepithelial Clamp Circuit on Human Bronchial Epithelial Cells Conductance Assay:
A cell based assay using the primary human bronchial epithelial cells (hBE) was used as a secondary assay to test novel F508delCFTR correctors for their activity on primary hBE cells with F508del/F508del CFTR mutation. The assay used a TECC-24 (Transepithelial Clamp Circuit for 24 wells) instrument that measures the functionality of the mutated channel by measuring the equivalent short circuit current (Ieq) generated by the polarized epithelial cells. The instrument works by measuring the transepithelial potential difference (Vt) and transepithelial resistance (Rt) in an open circuit format, and the Ieq is calculated by using Ohms law (Ieq=Vt/Rt). The assay was run in a 24-well format and all 24-wells were measured at the same time point giving a higher throughput for this assay.
Primary human bronchial epithelial (hBE) cells from F508del/F508delCFTR patients were expanded from 1×10^6 to 250×10^6 cells (Neuberger T, Burton B, Clark H and VanGoor F; Cystic Fibrosis, Methods in Mole Biol 741; eds. Amaral M D and Kunzelmann K, 2011). For this purpose, cells isolated from CF patients with the homozygous mutation were seeded onto 24 well Corning (Cat #3378) filter plates that were coated with 3T3 conditioned media and grown at an air-liquid interface for 35 days using an Ultroser® G supplemented differentiation media. Apical surface mucus was removed 72 hours before the experiment using 3 mM dithiothreitol (DTT) in phosphate buffered saline (PBS). The apical surface was washed again 24 hours before the experiment using PBS. The cells were incubated with the desired dose response of the corrector compounds 18-24 hours at 37° C., 5% CO2. The corrector compounds are only added on the basolateral side of the epithelial cells.
On the day of measuring the corrector activity on the TECC, the cells were switched into a bicarbonate and serum free F-12 Coon's medium and allowed to equilibrate for 90 minutes in a CO2 free incubator. At the time of measurement, the apical and basolateral sides of the filter were bathed with the F-12 Coon's modification media (with 20 mM 4-(2-hydroxyethyl)-1-piperazineethanesulfonic acid (HEPES), pH 7.4 (using 1 M tris(hydroxymethyl)aminormethane (Tris)), and the measurements were made at 36.5° C. Transepithelial voltage (Vt) and transepithelial resistance (Rt) were measured using a 24 channel transepithelial current clamp (TECC-24). Current responses to the sequential addition of benzamil (apical 6 μM addition; for inhibiting epithelial ENaC channel), forskolin (apical and basolateral 10 μM addition; for activating the CFTR channel), control potentiator (N-(3-carbamoyl-5,5,7,7-tetramethyl-4,7-dihydro-5H-thieno[2,3-c]pyran-2-yl)-1H-pyrazole-5-carboxamide; apical and basolateral 1 μM addition; for potentiating the CFTR channel) and bumetanide (basolateral 20 μM addition; for inhibiting the Na:2Cl:K co-transporter, an indirect measure of inhibiting the Cl-secretion driven by CFTR channel) were measured.
All plates contained negative controls (dimethyl sulfoxide, DMSO) which coupled with the control potentiator (N-(3-carbamoyl-5,5,7,7-tetramethyl-4,7-dihydro-5H-thieno[2,3-c]pyran-2-yl)-1H-pyrazole-5-carboxamide) sets the null response and positive controls (3 μM of 3-[(2R,4R)-4-({[1-(2,2-difluoro-1,3-benzodioxol-5-yl)cyclopropyl]carbonyl}amino)-7-methoxy-3,4-dihydro-2H-chromen-2-yl]benzoic acid) coupled with the control potentiator sets the 100% response to measure the correction of the mutated CFTR channel. The maximum percent activity is reported relative to the positive control value.
The % activity measured at each of the 6 test concentrations of the test compound was normalized to the on-plate positive control using the following formula: % activity=[(test compound response−DMSO response)/(positive control response−DMSO response)]*100 […]

[2] = molecular target: T1, F508delCFTR; test: Cell Surface Expression-Horse Radish Peroxidase (CSE-HRP) assay; format: cell-based; design: expressed in transfected cells; host or cells: CFBE41o- human lung derived epithelial cell line, doxycycline-inducible; settings: CFBE4lo-F508delCFTR-HRP cells; for EC50: 18-24 hours at 33° C., 8-point curve, highest concentration 20 μM, luminescence readout
In short: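 Following 18-24 h compound exposure at 33° C. Expression was doxycycline-induced beforehand. % activity versus DMSO and a 3 μM corrector control gave maximum activity and EC50 from a variable-Hill sigmoidal fit.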

[3] = system: CYP3A4; test: CYP3A4 induction in primary human hepatocytes (mRNA, RT-PCR); settings: test compounds 10 μM, 48 hours, % of response of positive control (Rifampin 10 μM)
Experimental: Cryopreserved primary human hepatocytes were thawed and cultured overnight prior to treatment. […] Following the 48 hour treatment, hepatocytes were harvested for RNA isolation and reverse transcription, followed by CYP3A4 mRNA quantitation using RT-PCR (real time reverse transcript polymerase chain reaction).
Fold Induction=Fold of Treated/Fold of Vehicle Control % positive control=(Fold Induction of Treated−1)/(Fold Induction of Prototypical Inducer−1)

[4] = maximum % activity at any tested concentration, normalized to on-plate positive control (3 μM Example 1)

| EC50 [1] | Emax [1] | EC50 [2] | Emax [2, 4] | CYP3A4 Hepatocytes mRNA % of positive control [3] | Maximum % activity (%) [2, 4] | Compound |
| --- | --- | --- | --- | --- | --- | --- |
| 1100 nM | 44% | 2120 nM | 77% | – | – | COc1ccc2c(c1)O[C@@H](C13CC(C(=O)O)(C1)C3)C[C@H]2NC(=O)C1(c2ccc3c(c2)OC(F)(F)O3)CC1 (racemic) [Example 148, rac-3-[(2R,4R)-4-({[1-(2,2-difluoro-1,3-benzodioxol-5-yl)cyclopropyl]carbonyl}amino)-7-methoxy-3,4-dihydro-2H-chromen-2-yl]bicyclo[1.1.1]pentane-1-carboxylic acid] |
| 110 nM | 88% | 340 nM | 93% | – | – | O=C(O)C1CCCC([C@H]2C[C@@H](NC(=O)C3(c4ccc5c(c4)OC(F)(F)O5)CC3)c3ccc(OC(F)F)cc3O2)C1 (stereo partly drawn) [Example 26, 3-[(2R,4R)-4-({[1-(2,2-difluoro-1,3-benzodioxol-5-yl)cyclopropyl]carbonyl}amino)-7-(difluoromethoxy)-3,4-dihydro-2H-chromen-2-yl]cyclohexanecarboxylic acid] |
| 450 nM | 80% | 880 nM | 71% | – | – | O=C(O)c1cccc([C@H]2C[C@@H](NC(=O)C3(c4ccc5c(c4)OC(F)(F)O5)CC3)c3cccc(F)c3O2)c1 [Example 119, 3-[(2R,4R)-4-({[1-(2,2-difluoro-1,3-benzodioxol-5-yl)cyclopropyl]carbonyl}amino)-8-fluoro-3,4-dihydro-2H-chromen-2-yl]benzoic acid] |
| – | – | 50 nM | 119% | – | – | COC(=O)c1ccc([C@H]2C[C@@H](NC(=O)C3(c4ccc5c(c4)OC(F)(F)O5)CC3)c3ccc(OC)cc3O2)c(F)c1 [Example 138, methyl 4-[(2R,4R)-4-({[1-(2,2-difluoro-1,3-benzodioxol-5-yl)cyclopropyl]carbonyl}amino)-7-methoxy-3,4-dihydro-2H-chromen-2-yl]-3-fluorobenzoate] |
| 31.3 nM | 100% | 100 nM | 115% | – | – | COc1ccc2c(c1)O[C@@H](c1ccc(C(=O)O)c(F)c1)C[C@H]2NC(=O)C1(c2ccc3c(c2)OC(F)(F)O3)CC1 [Example 139, 4-[(2R,4R)-4-({[1-(2,2-difluoro-1,3-benzodioxol-5-yl)cyclopropyl]carbonyl}amino)-7-methoxy-3,4-dihydro-2H-chromen-2-yl]-2-fluorobenzoic acid] |
| – | – | 6120 nM | 64% | – | – | CCOC(=O)C1CC(C2CC(NC(=O)C3(c4ccc5c(c4)OC(F)(F)O5)CC3)c3ccccc3O2)C1 (stereo not drawn) [Example 151, ethyl 3-[4-({[1-(2,2-difluoro-1,3-benzodioxol-5-yl)cyclopropyl]carbonyl}amino)-3,4-dihydro-2H-chromen-2-yl]cyclobutanecarboxylate] |
| – | – | 6350 nM | 59% | – | – | O=C(O)C1CC(C2CC(NC(=O)C3(c4ccc5c(c4)OC(F)(F)O5)CC3)c3ccccc3O2)C1 (stereo not drawn) [Example 152, 3-[4-({[1-(2,2-difluoro-1,3-benzodioxol-5-yl)cyclopropyl]carbonyl}amino)-3,4-dihydro-2H-chromen-2-yl]cyclobutanecarboxylic acid] |
| – | – | 10 nM | 142% | – | – | O=C(O)c1ccc([C@H]2C[C@@H](NC(=O)C3(c4cc5c(cc4Br)OC(F)(F)O5)CC3)c3ccc(OC(F)F)cc3O2)cc1 [Example 202, 4-[(2R,4R)-4-({[1-(6-bromo-2,2-difluoro-1,3-benzodioxol-5-yl)cyclopropyl]carbonyl}amino)-7-(difluoromethoxy)-3,4-dihydro-2H-chromen-2-yl]benzoic acid] |

Continued, compound first:

| Compound | EC50 [1] | Emax [1] | EC50 [2] | Emax [2, 4] | CYP3A4 Hepatocytes mRNA % of positive control [3] | Maximum % activity (%) [2, 4] |
| --- | --- | --- | --- | --- | --- | --- |
| COc1ccc2c(c1)O[C@@H](c1ccc(OC)c(OC)c1)C[C@H]2NC(=O)C1(c2ccc3c(c2)OC(F)(F)O3)CC1 [Example 3, 1-(2,2-difluoro-1,3-benzodioxol-5-yl)-N-[(2R,4R)-2-(3,4-dimethoxyphenyl)-7-methoxy-3,4-dihydro-2H-chromen-4-yl]cyclopropanecarboxamide] | – | – | 390 nM | 135% | 49.3% | – |
| Cc1ccc2c(c1)[C@H](NC(=O)C1(c3ccc4c(c3)OC(F)(F)O4)CC1)C[C@H](c1cccc(C(=O)O)c1)O2 [Example 14, 3-[(2R,4R)-4-({[1-(2,2-difluoro-1,3-benzodioxol-5-yl)cyclopropyl]carbonyl}amino)-6-methyl-3,4-dihydro-2H-chromen-2-yl]benzoic acid] | – | – | 850 nM | 78% | 3.54% | – |
| O=C(O)c1cccc([C@H]2C[C@@H](NC(=O)C3(c4ccc5c(c4)OC(F)(F)O5)CC3)c3ccc(OC(F)F)cc3O2)c1 [Example 27, 3-[(2R,4R)-4-({[1-(2,2-difluoro-1,3-benzodioxol-5-yl)cyclopropyl]carbonyl}amino)-7-(difluoromethoxy)-3,4-dihydro-2H-chromen-2-yl]benzoic acid] | 75 nM | 117% | 120 nM | 113% | – | – |
| O=C(O)c1cccc([C@H]2C[C@@H](NC(=O)C3(c4ccc5c(c4)OC(F)(F)O5)CC3)c3ccc(F)cc3O2)c1 [Example 38, 3-[(2R,4R)-4-({[1-(2,2-difluoro-1,3-benzodioxol-5-yl)cyclopropyl]carbonyl}amino)-7-fluoro-3,4-dihydro-2H-chromen-2-yl]benzoic acid] | – | – | – | – | 40.2% | – |
| O=C(O)c1ccc([C@H]2C[C@@H](NC(=O)C3(c4ccc5c(c4)OC(F)(F)O5)CC3)c3ccccc3O2)cc1 [Example 121, 4-[(2R,4R)-4-({[1-(2,2-difluoro-1,3-benzodioxol-5-yl)cyclopropyl]carbonyl}amino)-3,4-dihydro-2H-chromen-2-yl]benzoic acid] | 38 nM | 87% | 130 nM | 102% | – | – |
| COC(=O)c1ccc([C@H]2C[C@@H](NC(=O)C3(c4cc5c(cc4Br)OC(F)(F)O5)CC3)c3ccc(OC)cc3O2)cc1 [Example 202F, methyl 4-((2R,4R)-4-(1-(6-bromo-2,2-difluorobenzo[d][1,3]dioxol-5-yl)cyclopropanecarboxamido)-7-methoxychroman-2-yl)benzoate] | – | – | 40 nM | 131% | – | – |
| CS(=O)(=O)NC(=O)c1ccc([C@H]2C[C@@H](NC(=O)C3(c4ccc5c(c4)OC(F)(F)O5)CC3)c3ccc(OC(F)F)cc3O2)cc1 [Example 203, 4-[(2R,4R)-4-({[1-(2,2-difluoro-1,3-benzodioxol-5-yl)cyclopropyl]carbonyl}amino)-7-(difluoromethoxy)-3,4-dihydro-2H-chromen-2-yl]-N-(methylsulfonyl)benzamide] | – | – | 690 nM | 157% | – | – |
| N-[2-(3,4-dichlorophenyl)-3,4-dihydro-2H-chromen-4-yl]-1-(2,2-difluoro-1,3-benzodioxol-5-yl)cyclopropanecarboxamide [Example 66] | – | – | 6100 nM | – | – | 89% |
